# In patent US20110105623A1 (Biogenic Innovations, LLC, priority 2009, published 2011):
# Several values for one entry are separate records, joined by “and”; a condition that tells them apart may be missing. Equal entries are not always repeated.
# Tested on: Lactobacillus acidophilus
# Assay: Recovery from Acidophilus milk fortified with MSM into broth without MSM
# Assay type: cell-based
# Conditions: for Recovery of Lactobacillus acidophilus in Milk fortified with MSM Day 14, initial start data: Day 14-0; for Lag Recovery of Lactobacillus acidophilus in Milk fortified with MSM Day 14 / Lag Recovery of Lactobacillus acidophilus in Milk fortified with MSM Day 21 / Lag Recovery of Lactobacillus acidophilus in Milk fortified with MSM Day 28 / Lag Recovery of Lactobacillus acidophilus in Milk fortified with MSM Day 7: duplicates; for Lag Recovery of Lactobacillus acidophilus in Milk fortified with MSM Day 7: 5% MSM
# Description: The Acidophilus milk was low fat (Darigold). […] All preparations and plating was conducted at room temperature.
# The recovery study was run parallel to the study done on the affects of MSM on growth of Lactobacillus acidophilus in Acidophilus milk fortified with MSM. The recovery growth rate was analyzed on Day 7, Day 14, Day 21 and Day 28. For Table 27, the growth for Day x with no time is calculated from the initial growth study with the dilution factor into the log growth. […] Table 28 takes the value of 2.00 as the starting value.
substance,measurement,setting,value
Methylsulfonylmethane [MSM],"Recovery of Lactobacillus acidophilus in Milk fortified with MSM Day 7, initial start data",0.5% MSM,8.68 logs
same,"Recovery of Lactobacillus acidophilus in Milk fortified with MSM Day 7, average recovery","0.5% MSM, Day 7-24",12.94 logs
same,"Recovery of Lactobacillus acidophilus in Milk fortified with MSM Day 7, average recovery","0.5% MSM, Day 7-48",12.69 logs
same,"Recovery of Lactobacillus acidophilus in Milk fortified with MSM Day 7, average recovery","0.5% MSM, Day 7-72",13.07 logs
same,"Recovery of Lactobacillus acidophilus in Milk fortified with MSM Day 14, initial start data",0.5% MSM,4.22 logs
same,"Recovery of Lactobacillus acidophilus in Milk fortified with MSM Day 14, average recovery","0.5% MSM, Day 14-24",10.15 logs
same,Lag Recovery of Lactobacillus acidophilus in Milk fortified with MSM Day 14,"0.5% MSM, Day 14-24",10.19 logs and 10.10 logs
same,"Recovery of Lactobacillus acidophilus in Milk fortified with MSM Day 14, average recovery","0.5% MSM, Day 14-48",12.84 logs
same,Lag Recovery of Lactobacillus acidophilus in Milk fortified with MSM Day 14,"0.5% MSM, Day 14-48",12.95 logs and 12.72 logs
same,"Recovery of Lactobacillus acidophilus in Milk fortified with MSM Day 14, average recovery","0.5% MSM, Day 14-72",12.86 logs
same,Lag Recovery of Lactobacillus acidophilus in Milk fortified with MSM Day 14,"0.5% MSM, Day 14-72",13.02 logs and 12.70 logs
same,"Recovery of Lactobacillus acidophilus in Milk fortified with MSM Day 21, initial start data",0.5% MSM,3.37 logs
same,"Recovery of Lactobacillus acidophilus in Milk fortified with MSM Day 21, average recovery","0.5% MSM, Day 21-24",12.91 logs
same,Lag Recovery of Lactobacillus acidophilus in Milk fortified with MSM Day 21,"0.50% MSM, Day 21-24",12.89 logs and 12.93 logs
same,"Recovery of Lactobacillus acidophilus in Milk fortified with MSM Day 21, average recovery","0.5% MSM, Day 21-48",13.02 logs
same,Lag Recovery of Lactobacillus acidophilus in Milk fortified with MSM Day 21,"0.50% MSM, Day 21-48",12.94 logs and 13.1 logs
same,"Recovery of Lactobacillus acidophilus in Milk fortified with MSM Day 21, average recovery","0.5% MSM, Day 21-72",11.30 logs
same,Lag Recovery of Lactobacillus acidophilus in Milk fortified with MSM Day 21,"0.50% MSM, Day 21-72",12.29 logs and 10.31 logs
same,"Recovery of Lactobacillus acidophilus in Milk fortified with MSM Day 28, initial start data",0.5% MSM,1.00 logs
same,"Recovery of Lactobacillus acidophilus in Milk fortified with MSM Day 28, average recovery","0.5% MSM, Day 28-24",6.29 logs
same,Lag Recovery of Lactobacillus acidophilus in Milk fortified with MSM Day 28,"0.50% MSM, Day 28-24",6.11 logs and 6.47 logs
same,"Recovery of Lactobacillus acidophilus in Milk fortified with MSM Day 28, average recovery","0.5% MSM, Day 28-48",13.33 logs
same,Lag Recovery of Lactobacillus acidophilus in Milk fortified with MSM Day 28,"0.50% MSM, Day 28-48",13.66 logs and 12.99 logs
same,"Recovery of Lactobacillus acidophilus in Milk fortified with MSM Day 28, average recovery","0.5% MSM, Day 28-72",13.00 logs
same,Lag Recovery of Lactobacillus acidophilus in Milk fortified with MSM Day 28,"0.50% MSM, Day 28-72",12.99 logs and 13.01 logs
same,Day 7 log recovery growth rate increase from start time of zero,"0.5% MSM, Hour 0",0.00 logs
same,Day 14 log recovery growth rate increase from start time of zero,"0.5% MSM, Hour 0",0.00 logs
same,Day 21 log recovery growth rate increase from start time of zero,"0.5% MSM, Hour 0",0.00 logs
same,Day 7 log recovery growth rate increase from start time of zero,"0.5% MSM, Hour 24",4.26 logs
same,Day 14 log recovery growth rate increase from start time of zero,"0.5% MSM, Hour 24",5.93 logs
same,Day 21 log recovery growth rate increase from start time of zero,"0.5% MSM, Hour 24",9.54 logs
same,Day 7 log recovery growth rate increase from start time of zero,"0.5% MSM, Hour 48",−0.26 logs
same,Day 14 log recovery growth rate increase from start time of zero,"0.5% MSM, Hour 48",2.69 logs
same,Day 21 log recovery growth rate increase from start time of zero,"0.5% MSM, Hour 48",0.11 logs
same,Day 7 log recovery growth rate increase from start time of zero,"0.5% MSM, Hour 72",0.39 logs
same,Day 14 log recovery growth rate increase from start time of zero,"0.5% MSM, Hour 72",0.03 logs
same,Day 21 log recovery growth rate increase from start time of zero,"0.5% MSM, Hour 72",−1.72 logs
same,Day 28 log recovery growth rate increase from start time of zero,"0.5% MSM, Time 0",0.00 logs
same,Day 28 log recovery growth rate increase from start time of zero,"0.5% MSM, Time 24",5.29 logs
same,Day 28 log recovery growth rate increase from start time of zero,"0.5% MSM, Time 48",7.04 logs
same,Day 28 log recovery growth rate increase from start time of zero,"0.5% MSM, Time 72",−0.32 logs
same,"Recovery of Lactobacillus acidophilus in Milk fortified with MSM Day 7, initial start data",5.0% MSM,8.71 logs
same,"Recovery of Lactobacillus acidophilus in Milk fortified with MSM Day 7, average recovery","5.0% MSM, Day 7-24",12.71 logs
same,Lag Recovery of Lactobacillus acidophilus in Milk fortified with MSM Day 7,Day 7-24,12.12 logs and 13.29 logs
same,"Recovery of Lactobacillus acidophilus in Milk fortified with MSM Day 7, average recovery","5.0% MSM, Day 7-48",13.17 logs
same,Lag Recovery of Lactobacillus acidophilus in Milk fortified with MSM Day 7,Day 7-48,13.09 logs and 13.25 logs
same,"Recovery of Lactobacillus acidophilus in Milk fortified with MSM Day 7, average recovery","5.0% MSM, Day 7-72",12.99 logs
same,Lag Recovery of Lactobacillus acidophilus in Milk fortified with MSM Day 7,Day 7-72,13.1 logs and 12.87 logs
same,recovery log growth lower than the control,"5.0% MSM, Day 14, first 24 hours",1.02 logs
same,"Recovery of Lactobacillus acidophilus in Milk fortified with MSM Day 14, initial start data",5.0% MSM,6.04 logs
same,"Recovery of Lactobacillus acidophilus in Milk fortified with MSM Day 14, average recovery","5.0% MSM, Day 14-24",9.60 logs
same,Lag Recovery of Lactobacillus acidophilus in Milk fortified with MSM Day 14,"5.0% MSM, Day 14-24",9.6 logs
same,"Recovery of Lactobacillus acidophilus in Milk fortified with MSM Day 14, average recovery","5.0% MSM, Day 14-48",13.02 logs
same,Lag Recovery of Lactobacillus acidophilus in Milk fortified with MSM Day 14,"5.0% MSM, Day 14-48",12.99 logs and 13.04 logs
same,"Recovery of Lactobacillus acidophilus in Milk fortified with MSM Day 14, average recovery","5.0% MSM, Day 14-72",12.43 logs
same,Lag Recovery of Lactobacillus acidophilus in Milk fortified with MSM Day 14,"5.0% MSM, Day 14-72",12.65 logs and 12.21 logs
same,"Recovery of Lactobacillus acidophilus in Milk fortified with MSM Day 21, initial start data",5.0% MSM,3.56 logs
same,"Recovery of Lactobacillus acidophilus in Milk fortified with MSM Day 21, average recovery","5.0% MSM, Day 21-24",9.69 logs
same,"Recovery of Lactobacillus acidophilus in Milk fortified with MSM Day 21, average recovery","5.0% MSM, Day 21-48",13.08 logs
same,"Recovery of Lactobacillus acidophilus in Milk fortified with MSM Day 21, average recovery","5.0% MSM, Day 21-72",13.15 logs
same,"Recovery of Lactobacillus acidophilus in Milk fortified with MSM Day 28, initial start data",5.0% MSM,0.52 logs
same,"Recovery of Lactobacillus acidophilus in Milk fortified with MSM Day 28, average recovery","5.0% MSM, Day 28-24",5.56 logs
same,Lag Recovery of Lactobacillus acidophilus in Milk fortified with MSM Day 28,"5.0% MSM, Day 28-24",5.64 logs and 5.48 logs
same,"Recovery of Lactobacillus acidophilus in Milk fortified with MSM Day 28, average recovery","5.0% MSM, Day 28-48",12.87 logs
same,Lag Recovery of Lactobacillus acidophilus in Milk fortified with MSM Day 28,"5.0% MSM, Day 28-48",12.58 logs and 13.16 logs
same,"Recovery of Lactobacillus acidophilus in Milk fortified with MSM Day 28, average recovery","5.0% MSM, Day 28-72",12.48 logs
same,Lag Recovery of Lactobacillus acidophilus in Milk fortified with MSM Day 28,"5.0% MSM, Day 28-72",12.49 logs and 12.47 logs
same,Day 7 log recovery growth rate increase from start time of zero,"5.0% MSM, Hour 0",0.00 logs
same,Day 14 log recovery growth rate increase from start time of zero,"5.0% MSM, Hour 0",0.00 logs
same,Day 21 log recovery growth rate increase from start time of zero,"5.0% MSM, Hour 0",0.00 logs
same,Day 7 log recovery growth rate increase from start time of zero,"5.0% MSM, Hour 24",4.00 logs
same,Day 14 log recovery growth rate increase from start time of zero,"5.0% MSM, Hour 24",3.56 logs
same,Day 21 log recovery growth rate increase from start time of zero,"5.0% MSM, Hour 24",6.13 logs
same,Day 7 log recovery growth rate increase from start time of zero,"5.0% MSM, Hour 48",0.47 logs
same,Day 14 log recovery growth rate increase from start time of zero,"5.0% MSM, Hour 48",3.42 logs
same,Day 21 log recovery growth rate increase from start time of zero,"5.0% MSM, Hour 48",3.39 logs
same,Day 7 log recovery growth rate increase from start time of zero,"5.0% MSM, Hour 72",−0.19 logs
same,Day 14 log recovery growth rate increase from start time of zero,"5.0% MSM, Hour 72",−0.59 logs
same,Day 21 log recovery growth rate increase from start time of zero,"5.0% MSM, Hour 72",0.08 logs
same,Day 28 log recovery growth rate increase from start time of zero,"5.0% MSM, Time 0",0.00 logs
same,Day 28 log recovery growth rate increase from start time of zero,"5.0% MSM, Time 24",5.04 logs
same,Day 28 log recovery growth rate increase from start time of zero,"5.0% MSM, Time 48",7.31 logs
